These results are taken from US10813930B2, “Substituted imidazopyridazines and benzimidazoles as inhibitors of FGFR3” (Incyte Corporation, priority 2010, dated 2020).

This experiment deals with FGFR3 enzyme (Millipore) (Homo sapiens (Human), UniProt P22607). Description: FGFR3 Enzymatic Assay (peptide phosphorylation, FRET/HTRF). The class given is biochemical. As to conditions: 140 μM ATP, 25° C. 1 hr. On the procedure: FGFR3 Enzymatic Assay The inhibitor potency of compounds of the invention was measured in an enzyme assay that measures peptide phosphorylation using FRET measurements to detect product formation. Inhibitors were serially diluted in DMSO and a volume of 0.5 μL was transferred to the wells of a 384-well plate. A 10 μL volume of FGFR3 enzyme (Millipore) diluted in assay buffer (50 mM HEPES, 10 mM MgCl2, 1 mM EGTA, 0.01% Tween-20, 5 mM DTT, pH 7.5) was added to the plate and pre-incubated for 5-10 minutes. Appropriate controls (enzyme blank and enzyme with no inhibitor) were included on the plate. […] The plate was incubated at 25° C. for 1 hr. […] The plate was allowed to equilibrate for ˜1 hr before scanning the wells on a PheraStar plate reader.
Sequence of FGFR3 enzyme (Millipore) (P22607 23-806): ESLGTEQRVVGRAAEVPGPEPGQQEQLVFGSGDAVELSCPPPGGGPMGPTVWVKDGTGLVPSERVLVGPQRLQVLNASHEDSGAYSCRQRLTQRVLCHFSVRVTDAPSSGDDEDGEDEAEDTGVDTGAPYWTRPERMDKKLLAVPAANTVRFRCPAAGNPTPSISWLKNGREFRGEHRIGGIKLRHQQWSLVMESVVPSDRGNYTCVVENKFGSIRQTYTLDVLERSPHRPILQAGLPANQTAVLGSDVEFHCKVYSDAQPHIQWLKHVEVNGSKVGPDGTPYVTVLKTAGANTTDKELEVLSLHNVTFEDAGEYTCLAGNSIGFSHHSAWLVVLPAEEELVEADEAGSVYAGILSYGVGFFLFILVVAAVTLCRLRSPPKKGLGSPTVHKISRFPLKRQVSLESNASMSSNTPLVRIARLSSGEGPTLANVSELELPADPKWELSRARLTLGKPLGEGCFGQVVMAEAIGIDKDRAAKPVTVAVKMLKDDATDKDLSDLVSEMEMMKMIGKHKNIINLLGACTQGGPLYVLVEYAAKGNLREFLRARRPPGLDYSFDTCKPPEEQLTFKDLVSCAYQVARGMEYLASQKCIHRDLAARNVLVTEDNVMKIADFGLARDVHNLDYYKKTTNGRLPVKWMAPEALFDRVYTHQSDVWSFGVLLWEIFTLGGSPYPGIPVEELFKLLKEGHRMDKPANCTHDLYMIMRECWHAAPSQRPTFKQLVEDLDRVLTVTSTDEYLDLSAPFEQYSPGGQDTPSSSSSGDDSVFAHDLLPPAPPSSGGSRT
GraphPad prism3 was used to analyze the data. The IC50 values were derived by fitting the data to the equation for a sigmoidal dose-response with a variable slope. Y=Bottom+(Top-Bottom)/(1+10^(Log IC50−X)*HillSlope)) where X is the logarithm of concentration and Y is the response.
In general terms: Time-resolved FRET reads energy transfer from a long-lived donor to a nearby acceptor.
In turn, `CC(O)CNC(=O)C(C)n1cc(-c2cnn3c(-c4cccc(NC(=O)NCC(F)(F)F)c4)cnc3c2)cn1` (stereo not shown) [Example 63, N-(2-Hydroxypropyl)-2-(4-{3-[3-({[(2,2,2-trifluoroethyl)amino]carbonyl}amino)phenyl]imidazo[1,2-b]pyridazin-7-yl}-1H-pyrazol-1-yl)propanamide] showed an IC50 of less than 0.01 µM.
Turning to `N#CCC1(n2cc(-c3cnn4c(-c5cccc(NC(=O)NCC(F)(F)F)c5)cnc4c3)cn2)CN(C(=O)CC2CC2)C1` [Example 78, N-[3-(7-{1-[3-(Cyanomethyl)-1-(cyclopropylacetyl)azetidin-3-yl]-1H-pyrazol-4-yl}imidazo[1,2-b]pyridazin-3-yl)phenyl]-N′-(2,2,2-trifluoroethyl)urea], the IC50 is less than 0.01 µM.
Next, `N#CCC1(n2cc(-c3cnn4c(-c5cccc(NC(=O)NCC(F)(F)F)c5)cnc4c3)cn2)CN(C(=O)OCC2CC2)C1` [Example 88, Cyclopropylmethyl 3-(cyanomethyl)-3-(4-{3-[3-({[(2,2,2-trifluoroethyl)amino]carbonyl}amino)phenyl]imidazo[1,2-b]pyridazin-7-yl}-1H-pyrazol-1-yl)azetidine-1-carboxylate]: less than 0.01 µM; `N#CCC1(n2cc(-c3cnn4c(-c5cccc(NC(=O)NCC(F)(F)F)c5)cnc4c3)cn2)CN(C(=O)CC2CCCO2)C1` (stereo not shown) [Example 81, N-[3-(7-{1-[3-(Cyanomethyl)-1-(tetrahydrofuran-2-ylacetyl)azetidin-3-yl]-1H-pyrazol-4-yl}imidazo[1,2-b]pyridazin-3-yl)phenyl]-N′-(2,2,2-trifluoroethyl)urea]: less than 0.01 µM.
Next, `N#CCC(=O)N1CC(CC#N)(n2cc(-c3cnn4c(-c5cccc(NC(=O)NCC(F)(F)F)c5)cnc4c3)cn2)C1` [Example 77, N-[3-(7-{1-[1-(Cyanoacetyl)-3-(cyanomethyl)azetidin-3-yl]-1H-pyrazol-4-yl}imidazo[1,2-b]pyridazin-3-yl)phenyl]-N′-(2,2,2-trifluoroethyl)urea]: less than 0.01 µM; `N#CCC1(n2cc(-c3cnn4c(-c5cccc(NC(=O)NCC(F)(F)F)c5)cnc4c3)cn2)CN(C(=O)N2CCCC2)C1` [Example 86, N-[3-(7-{1-[3-(Cyanomethyl)-1-(pyrrolidin-1-ylcarbonyl)azetidin-3-yl]-1H-pyrazol-4-yl}imidazo[1,2-b]pyridazin-3-yl)phenyl]-N′-(2,2,2-trifluoroethyl)u rea]: less than 0.01 µM.
In turn, `N#CCC1(n2cc(-c3cnn4c(-c5cccc(NC(=O)NCC(F)(F)F)c5)cnc4c3)cn2)CN(C(=O)C2CCOC2)C1` (stereo not shown) [Example 82, N-[3-(7-{1-[3-(Cyanomethyl)-1-(tetrahydrofuran-3-ylcarbonyl)azetidin-3-yl]-1H-pyrazol-4-yl}imidazo[1,2-b]pyridazin-3-yl)phenyl]-N′-(2,2,2-trifluoroethyl)urea] registered a half-inhibitory concentration (IC50) of less than 0.01 µM.
Next, `N#CCC1(n2cc(-c3cnn4c(-c5cccc(NC(=O)NCC(F)(F)F)c5)cnc4c3)cn2)CN(C(=O)N2CCOCC2)C1` [Example 85, N-[3-(7-{1-[3-(Cyanomethyl)-1-(morpholin-4-ylcarbonyl)azetidin-3-yl]-1H-pyrazol-4-yl}imidazo[1,2-b]pyridazin-3-yl)phenyl]-N′-(2,2,2-trifluoroethyl)urea]: less than 0.01 µM; `N#CCC1(n2cc(-c3cnn4c(-c5cccc(NC(=O)NCC(F)(F)F)c5)cnc4c3)cn2)CN(C(=O)NCC2CC2)C1` [Example 87, 3-(Cyanomethyl)-N-(cyclopropylmethyl)-3-(4-{3-[3-({[(2,2,2-trifluoroethyl)amino]carbonyl}amino)phenyl]imidazo[1,2-b]pyridazin-7-yl}-1H-pyrazol-1-yl)azetidine-1-carboxamide]: less than 0.01 µM; `CC(C(=O)N1CC(O)C1)n1cc(-c2cnn3c(-c4cccc(NC(=O)NCC(F)(F)F)c4)cnc3c2)cn1` (stereo not shown) [Example 64, N-[3-(7-{1-[2-(3-Hydroxyazetidin-1-yl)-1-methyl-2-oxoethyl]-1H-pyrazol-4-yl}imidazo[1,2-b]pyridazin-3-yl)phenyl]-N′-(2,2,2-trifluoroethyl)urea]: less than 0.01 µM.
Next, `CC1(C(=O)N2CC(CC#N)(n3cc(-c4cnn5c(-c6cccc(NC(=O)NCC(F)(F)F)c6)cnc5c4)cn3)C2)CC1` [Example 79, N-{3-[7-(1-{3-(Cyanomethyl)-1-[(1-methylcyclopropyl)carbonyl]azetidin-3-yl}-1H-pyrazol-4-yl)imidazo[1,2-b]pyridazin-3-yl]phenyl}-N′-(2,2,2-trifluoroethyl)urea]: less than 0.01 µM; `N#CCC1(n2cc(-c3cnn4c(-c5cccc(NC(=O)NCC(F)(F)F)c5)cnc4c3)cn2)CN(C(=O)C2(C#N)CC2)C1` [Example 80, N-[3-(7-{1-[1-[(1-Cyanocyclopropyl)carbonyl]-3-(cyanomethyl)azetidin-3-yl]-1H-pyrazol-4-yl}imidazo[1,2-b]pyridazin-3-yl)phenyl]-N′-(2,2,2-trifluoroethyl)urea]: less than 0.01 µM; `CC(C(=O)N1CCC(F)(F)C1)n1cc(-c2cnn3c(-c4cccc(NC(=O)NCC(F)(F)F)c4)cnc3c2)cn1` (stereo not shown) [Example 65, N-[3-(7-{1-[2-(3,3-Difluoropyrrolidin-1-yl)-1-methyl-2-oxoethyl]-1H-pyrazol-4-yl}imidazo[1,2-b]pyridazin-3-yl)phenyl]-N′-(2,2,2-trifluoroethyl)urea]: less than 0.01 µM.

Broadly, the IC50 is the midpoint of a concentration-inhibition curve. Read a low IC50 as greater potency.
